In patent US11370847B2, “Single domain antibodies directed against intracellular antigens” (Singh Biotechnology, LLC, priority 2014, dated 2022):
“And” between values parts separate entries of the source, which are not always exact repeats. Equal entries are not always repeated. Where two headings read alike, the source gives them in different places.

How the values were obtained:
PANC-1 xenograft = details: for Tumor Measurements (mm^3), group Mean / Individual Tumor Measurements (mm^3): Group 2: 500 μg/kg bw IP QD×14; for Individual Tumor Measurements (mm^3): single animals, listed as anti-STAT3 bacterial VHH13
BT474 xenograft = test: BT474 human breast tumor xenograft in CB.17 SCID mice; assay type: in vivo
DU145 cells = test: MTT proliferation assay, DU145; assay type: cell-based, human; details: 50 μg, single experiments, listed as Anti-STAT3 Bacterial VHH13
[1] = system: Zika/DAKAR D41525 Senegal strain
STAT5 = test: Biacore 3000 protein binding, STAT5
EBOv (Makon) [2] = details: Hela; EBOV (Makona); 48 hours
STAT3 [3] = test: Immunofluorescence of Stat3 nuclear translocation after IL-6; assay type: cell-based; details: HEp-2, MDA-MB-231 and PANC-1 cells; sdAb 1:10 overnight; 100 ng/ml IL-6 15 min
Procedure: The cells were grown to confluence on chamber slides. […] As a negative control, no antibody was added to duplicate chambers. The slides were washed, and either serum-free media alone or 100 ng/ml recombinant human IL-6 (Peprotech, Rocky Hill, N.J.) in serum free media was added to the slides for 15 min at 37° C. The media was then removed and the chamber slides were fixed in ice cold 100% methanol for 10 min at −20° C.
Immunofluorescence assays were performed on the fixed slides. First, the slides were blocked with 3% BSA in PBS was done for one hour at room temperature. The primary antibody, Stat3(124H6) mouse monoclonal antibody (Cell Signaling Technology, Danvers, Mass.) was added to the slides at a 1:1000 dilution overnight in dark box at 4° C. The following day, the slides were washed and the secondary Alexa Fluor 488 anti-mouse IgG antibody (Cell Signaling Technology) was added at a 1:500 dilution and incubated for 1 hour at room temperature. The slides were then washed, mounted with mounting media and viewed with a fluorescence microscope.

MDA-MB-231 cells = test: MTT proliferation assay, MDA-MB-231; assay type: cell-based, human; details: MDA-MB-231; for Absorbance: single experiments;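 as to all read-outs here: proliferation of cultured human cancer cells read by MTT, with treated groups compared against a vehicle control group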
STAT3 [4] = test: STAT3 reporter GloResponse SIE-luc2P/HEK293 assay, IL-6 induction; assay type: cell-based; details: for decrease in RLU: highest concentration (55.8 μg/mL);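 as to all read-outs here: SIE-luc2P/HEK293 reporter cells stimulated with IL-6 at 40 ng/mL (EC80) after pretreatment, luciferase luminescence (RLU) read the following day, triplicate wells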
U87MG cells = test: MTT proliferation assay, U87MG; assay type: cell-based, human; details: for % Inhibition (growth): U87mg cells treated for 72 hr.
SIE-luc2P/HEK293 cells = test: BCA protein concentration of reporter cells; assay type: cell-based; details: highest concentration (55.8 μg/mL)
HT1080 cells = test: MTT proliferation assay, HT1080; assay type: cell-based, human; details: HT1080, 72 hr
SJSA-1 xenograft = test: SJSA-1 Bone Osteosarcoma subcutaneous xenograft model
EBOv (Makon) [5] = details: HFF; EBOV (Makona); 48 hours
[6] = SB-01 1 mg/kg ip tid × 14 first day 2 doses
[7] = SBT-100 5.0 mg/kg BID 14 days IP, Doxorubicin 7.0 mg/kg days 1, 8 and 14 IP
[8] = study day 9 post implant, IP, SBT-100 5.0 mg/kg BIDx14 and/or Doxorubicin 7.0 mg/kg days 1, 8, 14
[9] = study day 13 post implant, IP, SBT-100 5.0 mg/kg BIDx14 and/or Doxorubicin 7.0 mg/kg days 1, 8, 14
[10] = study day 16 post implant, IP, SBT-100 5.0 mg/kg BIDx14 and/or Doxorubicin 7.0 mg/kg days 1, 8, 14
[11] = study day 20 post implant, IP, SBT-100 5.0 mg/kg BIDx14 and/or Doxorubicin 7.0 mg/kg days 1, 8, 14
[12] = study day 21 post implant, IP, SBT-100 5.0 mg/kg BIDx14 and/or Doxorubicin 7.0 mg/kg days 1, 8, 14
[13] = study day 23 post implant, IP, SBT-100 5.0 mg/kg BIDx14 and/or Doxorubicin 7.0 mg/kg days 1, 8, 14
[14] = study day 27 post implant, IP, SBT-100 5.0 mg/kg BIDx14 and/or Doxorubicin 7.0 mg/kg days 1, 8, 14

## anti-STAT3 VHH13: anti-STAT3 single-domain antibody, SEQ ID NO:3; bacterially produced, referred to as SBT-100
PANC-1 xenograft; 500 μg/kg bw IP QD×14
  growth inhibition: no significant growth inhibition
  mean tumor size (±SE) on day 14 of dosing: 318.74 ± 29.76
PANC-1 xenograft; 500 μg/kg bw IP QD×14, control […] days
  tumor doubling time: 23.02 days
PANC-1 xenograft; 2/19
  Tumor Measurements (mm^3), group Mean: 110.58 mm^3
  Individual Tumor Measurements (mm^3): 96.31 mm^3 and 89.24 mm^3 and 80.62 mm^3 and 108.03 mm^3 and 77.66 mm^3 and 129.68 mm^3 and 108.99 mm^3 and 123.27 mm^3 and 144.53 mm^3 and 120.96 mm^3 and 112.69 mm^3 and 134.95 mm^3
PANC-1 xenograft; 2/24
  Tumor Measurements (mm^3), group Mean: 149.71 mm^3
  Individual Tumor Measurements (mm^3): 193.71 mm^3 and 90.03 mm^3 and 148.97 mm^3 and 144.14 mm^3 and 116.21 mm^3 and 143.20 mm^3 and 182.30 mm^3 and 171.03 mm^3 and 136.03 mm^3 and 136.48 mm^3 and 144.76 mm^3 and 189.64 mm^3
PANC-1 xenograft; 2/27
  Tumor Measurements (mm^3), group Mean: 222.47 mm^3
  Individual Tumor Measurements (mm^3): 275.06 mm^3 and 112.43 mm^3 and 196.38 mm^3 and 234.46 mm^3 and 313.19 mm^3 and 290.67 mm^3 and 239.00 mm^3 and 223.34 mm^3 and 198.47 mm^3 and 226.43 mm^3 and 167.12 mm^3 and 193.14 mm^3
PANC-1 xenograft; 3/2
  Tumor Measurements (mm^3), group Mean: 242.11 mm^3
  Individual Tumor Measurements (mm^3): 317.53 mm^3 and 125.51 mm^3 and 187.24 mm^3 and 240.39 mm^3 and 290.38 mm^3 and 224.92 mm^3 and 254.64 mm^3 and 226.88 mm^3 and 226.04 mm^3 and 338.06 mm^3 and 225.70 mm^3 and 248.01 mm^3
PANC-1 xenograft; 3/6
  Tumor Measurements (mm^3), group Mean: 318.74 mm^3
  Individual Tumor Measurements (mm^3): 395.37 mm^3 and 189.63 mm^3 and 299.84 mm^3 and 288.75 mm^3 and 411.66 mm^3 and 261.44 mm^3 and 342.19 mm^3 and 248.69 mm^3 and 247.97 mm^3 and 564.71 mm^3 and 223.06 mm^3 and 351.63 mm^3
PANC-1 xenograft; 3/10
  Tumor Measurements (mm^3), group Mean: 408.74 mm^3
  Individual Tumor Measurements (mm^3): 540.66 mm^3 and 235.08 mm^3 and 530.46 mm^3 and 421.61 mm^3 and 197.67 mm^3 and 343.04 mm^3 and 464.00 mm^3 and 324.30 mm^3 and 273.58 mm^3 and 883.81 mm^3 and 326.19 mm^3 and 364.44 mm^3
PANC-1 xenograft; SBT-100 5 mg/kg bw i.p. BID×14
  % treatment/control: 52.79%
  mean tumor size (±S.E.) at termination (day 28): 203.02±30.34
  mean tumor size (±SE) at last day of dosing (Day 14): 159.03±28.01
PANC-1 xenograft; SBT-100 5 mg/kg bw i.p. BID×14, control 18.51 days
  tumor doubling time: 35.70 days
PANC-1 xenograft; SBT-100 5 mg/kg bw i.p. BID×14, p=0.35
  mean tumor growth inhibition at the end of the study: 41.78%
BT474 xenograft; 1 mg/kg ip tid × 14
  effect on growth of BT474 tumors compared to control: did not reduce the growth of BT474 tumors in vivo
BT474 xenograft; [6]
  % TGD: 22%
  MTV (n) Day 60: 550
  Median TTE: 60.0
DU145 cells
  Absorbance: 0.68 and 1.2
[1]
  EC50: 11.04 ug/m
  EC90: 48.11 µg/mL
STAT5; Biacore 3000, sdAb immobilized
  binding to STAT5: bound
STAT5; Table 50, sdAb immobilized as ligand, analyte STAT5 protein 500 nM
  Result (binding): Binding
EBOv (Makon) [2]
  EC50: 19.02 ug/m
  EC90: 58.72 µg/mL
STAT3 [3]
  translocation of Stat3 to the nucleus following IL-6 treatment: blocks the translocation of Stat3 to the nucleus
MDA-MB-231 cells; 50 μg
  Average Absorbance: 0.82
MDA-MB-231 cells; 50 μg (50.0 μg/ml), listed as Anti-STAT3 Bacterial VHH13
  Average % Inhibition: 32.6%
MDA-MB-231 cells; 50 μg, listed as Anti-STAT3 Bacterial VHH13
  Absorbance: 0.82 and 0.99 and 0.64
MDA-MB-231 cells; 100 μg
  Average Absorbance: 0.11
MDA-MB-231 cells; 100 μg, listed as Anti-STAT3 Bacterial VHH13
  Absorbance: 0.07 and 0.12 and 0.14
STAT3 [4]; 24 and 48 hours treatment, VHH13 and VHH69 at highest concentration, VHH14 at both concentrations
  effect on IL-6 induction of the STAT3 reporter: Inhibition of IL-6
STAT3 [4]; 24 hours treatment prior to IL-6 induction
  decrease in RLU: greater than 10 fold
STAT3 [4]; 48 hours treatment prior to IL-6 induction
  decrease in RLU: greater than 1,000 fold
U87MG cells; Dose 50 μg/ml
  % Inhibition (growth): 18%
U87MG cells; Dose 100 μg/ml
  % Inhibition (growth): 51%
U87MG cells; Dose 200 μg/ml
  % Inhibition (growth): 62%
U87MG cells; U87mg, 72 hr
  IC50: IC50 = 65 μg/ml
U87MG cells; U87mg, SBT-100 50 μg/ml, 72 hr
  % Inhibition: 18%
U87MG cells; U87mg, SBT-100 100 μg/ml, 72 hr
  % Inhibition: 51%
U87MG cells; U87mg, SBT-100 200 μg/ml, 72 hr
  % Inhibition: 62%
SIE-luc2P/HEK293 cells
  decrease in protein: approximately 2 fold
HT1080 cells
  IC50: IC50 = 33 μg/ml
SJSA-1 xenograft; [7]
  % T/C: 69.91%
  mean tumor growth inhibition at the end of the study: 25.23%
  mean tumor size (±S.E.) at termination: 1055.68±307.10
  mean tumor size (±SE) at the last day of dosing: 334.52±114.62
SJSA-1 xenograft; SJSA-1 xenograft
  mean tumor size compared to control: non-significant decrease in mean tumor size
SJSA-1 xenograft; control 8.22
  tumor doubling time: 8.84
SJSA-1 xenograft; [8]
  % Inh Mean: 21.06%
  % Inh Med: 11.92%
  Mean Abs (tumor measurement): 31.31 mm^3
  Median Abs (tumor measurement): 19.98 mm^3
  Tumor Measurements, single animals: 15.75 mm^3 and 19.98 mm^3 and 0.00 mm^3 and 69.47 mm^3 and 10.46 mm^3 and 79.76 mm^3 and 23.77 mm^3
SJSA-1 xenograft; [9]
  % Inh Mean: −45.34%
  % Inh Med: −44.59%
  Mean Abs (tumor measurement): 115.14 mm^3
  Median Abs (tumor measurement): 85.60 mm^3
  Tumor Measurements, single animals: 106.64 mm^3 and 28.26 mm^3 and 0.00 mm^3 and 126.45 mm^3 and 38.25 mm^3 and 420.78 mm^3 and 85.60 mm^3
SJSA-1 xenograft; [10]
  % Inh Mean: 12.69%
  % Inh Med: 14.60%
  % T/C: 71.23%
  Mean Abs (tumor measurement): 151.57 mm^3
  Median Abs (tumor measurement): 139.83 mm^3
  Tumor Measurements, single animals: 139.83 mm^3 and 36.05 mm^3 and 11.02 mm^3 and 200.95 mm^3 and 187.82 mm^3 and 358.90 mm^3 and 126.46 mm^3
SJSA-1 xenograft; [11]
  % Inh Mean: 18.11%
  % Inh Med: 24.54%
  % T/C: 73.26%
  Mean Abs (tumor measurement): 252.90 mm^3
  Median Abs (tumor measurement): 191.62 mm^3
  Tumor Measurements, single animals: 191.62 mm^3 and 70.70 mm^3 and 59.97 mm^3 and 616.53 mm^3 and 180.38 mm^3 and 450.45 mm^3 and 200.68 mm^3
SJSA-1 xenograft; [12]
  % Inh Mean: 16.23%
  % Inh Med: 35.42%
  % T/C: 76.22%
  Mean Abs (tumor measurement): 334.52 mm^3
  Median Abs (tumor measurement): 198.86 mm^3
  Tumor Measurements, single animals: 271.05 mm^3 and 115.97 mm^3 and 96.53 mm^3 and 901.18 mm^3 and 155.51 mm^3 and 602.51 mm^3 and 198.86 mm^3
SJSA-1 xenograft; [13]
  % Inh Mean: 8.48%
  % Inh Med: 33.12%
  % T/C: 79.47%
  Mean Abs (tumor measurement): 477.43 mm^3
  Median Abs (tumor measurement): 308.49 mm^3
  Tumor Measurements, single animals: 308.49 mm^3 and 201.00 mm^3 and 185.39 mm^3 and 1,359.67 mm^3 and 197.83 mm^3 and 756.79 mm^3 and 332.80 mm^3
SJSA-1 xenograft; [14]
  % Inh Mean: 25.23%
  % Inh Med: 37.90%
  % T/C: 69.91%
  Mean Abs (tumor measurement): 1,055.68 mm^3
  Median Abs (tumor measurement): 707.34 mm^3
  Tumor Measurements, single animals: 707.34 mm^3 and 474.71 mm^3 and 380.72 mm^3 and 2,500.29 mm^3 and 351.21 mm^3 and 1,699.89 mm^3 and 1,275.63 mm^3
EBOv (Makon) [5]
  EC50: 38.36 ug/m
  EC90: 66.43 µg/mL
